Counter-ions that a name gives are not always drawn. Like-named read-outs stand apart in the source and are kept apart here.
Legend:
S1P1 [1] = biological target: T1, S1P1 (Homo sapiens, UniProt P21453); test: Receptor binding assay, [33P]sphingosine 1-phosphate competition, membranes of CHO cells expressing S1P1
Procedure: (§1) Membranes were prepared from CHO cells expressing S1P1 or S1P3 for use in ligand binding studies. Cells were suspended in 50 mM TRIS, pH 7.4, 2 mM EDTA, 250 mM Sucrose (buffer A) and 1× Complete protease inhibitor cocktail (Roche), and disrupted at 4° C. by N2 decompression using a cell disruption bomb (Parr Instrument). Following centrifugation at 1000 RPM for 10 min at 4° C., the supernatant was diluted (2×) in buffer A and centrifuged again at 19000 RPM for 75 min at 4° C. The pellet was then suspended in 10 mM HEPES, pH 7.4, 1 mM EDTA, 250 mM Sucrose (Buffer B), and 1× Complete EDTA-free protease inhibitor cocktail and homogenized using a potter. Membranes were flash frozen in liquid N2 and stored at −80° C.
(§2) [33P]sphingosine 1-phosphate (3000 Ci/mmol; American Radiolabeled Chemicals, Inc.) was added to test compounds in 20% DMSO by competition. Membranes and WGA SPA beads (GE Healthcare) were added to give a final volume of 100 μl in 96-well plates or 50 μl in 384-well plates with assay concentrations of 30 pM or 15 pM [33P]sphingosine 1-phosphate (respectively for S1P1 or S1P3), 50 mM HEPES, pH 7.5, 5 mM MgCl2, 100 mM NaCl, 0.4% fatty acid-free BSA, 1-5 μg/well of proteins in 96-well plates vs 0.6-1 μg/well of proteins in 384-well plates and 100 μg/well of WGA SPA beads in 96-well plates vs 75 μg/well of WGA SPA beads in 384-well plates. Binding was performed for 60 min at RT on a shaker and bound radioactivity was measured on a PerkinElmer 1450 MicroBeta counter. Triplicate samples were averaged and normalized as percentage of inhibition relative to total binding (only DMSO in well) and non specific binding (1000-fold excess of unlabeled S1P). Binding data were analyzed using the GraphPad Prism program or Genedata software.
(§3) The “potency” or the “activity” of the compounds is determined by the Ki values as evaluated in one of the above described binding assay, 96 or 384 well plates.
Target sequence in this assay (P21453 whole entry, species assumed): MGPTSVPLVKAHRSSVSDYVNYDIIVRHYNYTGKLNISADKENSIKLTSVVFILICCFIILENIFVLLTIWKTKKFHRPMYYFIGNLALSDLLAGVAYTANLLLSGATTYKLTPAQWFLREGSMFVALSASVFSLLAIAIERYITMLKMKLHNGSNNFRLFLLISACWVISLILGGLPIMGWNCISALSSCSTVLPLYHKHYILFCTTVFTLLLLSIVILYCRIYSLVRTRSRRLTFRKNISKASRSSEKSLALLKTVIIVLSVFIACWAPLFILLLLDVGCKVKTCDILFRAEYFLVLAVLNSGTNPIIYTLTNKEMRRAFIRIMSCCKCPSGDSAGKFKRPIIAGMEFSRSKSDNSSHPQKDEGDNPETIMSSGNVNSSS

S1P1 [2] = biological target: T1, S1P1; test: S1P1 internalization assay in S1P1-U2OS cells (cell imaging); assay type: cell-based; design: host or cells: U2OS (human bone osteosarcoma epithelial cells); conditions: U2OS cells expressing S1P1-EGFP, 384-well format
Procedure: Cellular Functional Assays: Internalization of Sphinqosine-1-phosphate Receptor 1 (S1P1) in a Human Cell Line (U2OS) in a 384-Well Format Using a Cell Imaging Analysis.
The S1P1 internalization assay was performed in 384 well plates (Corning 384 black with clear bottom 3712) using S1P1-U2OS cells from BioImage (C039A), a human epithelial cell line (Human Bone Osteosarcoma Epithelial Cells). These cells expressed the human S1P1 Receptor fused to the green fluorescent protein (EGFP). A standard CMV promoter (cytomegalovirus promoter) controls the expression of S1P1-EGFP and continuous expression was maintained by addition of geneticin to the culture medium.
S1P1 Receptor desensitization induced the internalization of the membrane-localized S1P-EGFP fusion protein to endosomes, which can be monitored by cell imaging analysis.
The cells are plated in low serum medium (Dulbecco's Modified Eagle Medium (DMEM) with Glutamax-1 and high glucose, 1% Penicillin/Streptomycin, 1% Fetal Calf Serum (FCS), 0.5 mg/ml Geneticin) overnight.
The next day, S1P1-U2OS cells are incubated in 20 μl serum free medium (DMEM with Glutamax-1 and high glucose, 0.1% of fatty-acid free Bovin Serum Albumin (BSA), 10 mM, N′-2-Hydroxyethylpiperazine-N′-2 ethanesulphonic acid (HEPES) 1M) for 2 hours at 37° C./5% CO2. The cells are then treated with 4 μl compounds/agonists (6×/3% DMSO) for a total volume of 24 μl, and plates are incubated for 1 hour at 37° C./5% CO2.
S1P1-U2OS cells are fixed with 25 μl Paraformaldehyde 8% and stained with Hoechst 33345 dye (1:1000) for 20 minutes.
They were then washed 3 times with Phosphate Buffered Saline (PBS) and plates are sealed. The internalization of the receptor S1P1-EGFP is measured on Cellomics by calculating the “spot count per object” (“object” corresponds to nuclear and “spot” corresponds to S1P1-EGFP receptor). Internalization data were observed thanks to vHCS View and analyzed using Genedata® software.
Target sequence in this assay (P21453 whole entry): as the sequence (P21453 whole entry, species assumed) above

S1P3 = S1P3 (Homo sapiens, UniProt Q99500); test: Receptor binding assay, [33P]sphingosine 1-phosphate competition, membranes of CHO cells expressing S1P3
Chain of S1P3 (Q99500 whole entry, species assumed): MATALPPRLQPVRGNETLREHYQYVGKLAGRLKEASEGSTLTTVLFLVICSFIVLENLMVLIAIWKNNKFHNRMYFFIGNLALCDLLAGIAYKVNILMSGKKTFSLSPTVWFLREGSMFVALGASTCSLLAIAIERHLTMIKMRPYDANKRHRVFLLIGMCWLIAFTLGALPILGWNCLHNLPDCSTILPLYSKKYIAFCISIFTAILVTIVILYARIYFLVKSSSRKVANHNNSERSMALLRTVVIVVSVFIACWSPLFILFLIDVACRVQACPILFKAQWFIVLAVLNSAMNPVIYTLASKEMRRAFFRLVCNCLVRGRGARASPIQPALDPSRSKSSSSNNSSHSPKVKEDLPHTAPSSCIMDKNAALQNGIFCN
Procedure: as §1, §2, §3

[3] = 384 well plate, read-out: S1P1 Binding Ki [M] (384 well plate)
[4] = 384 well plate, read-out: S1P3 Binding Ki [M] (384 well plate)
[5] = 96 well plate, read-out: S1P1 Binding Ki [M] (96 well plate)
[6] = 96 well plate, read-out: S1P3 Binding Ki [M] (96 well plate)

Ki (S1P1 [1]; [3]) [M] | EC50 (S1P1 [2]) [nM] | Ki (S1P3; [4]) [M] | Ki (S1P1 [1]; [5]) [M] | Ki (S1P3; [6]) [M] | SMILES
2.24e-09 | 21.6 | 1.65e-06 |  |  | Cc1ccccc1-c1ccc(-c2nc(-c3ccc([C@H](C)N[C@@H](C)C(=O)O)cc3)no2)cc1C(F)(F)F (racemic) [Example 26, N-[(1S)-1-(4-{5-[2′-methyl-2-(trifluoromethyl)biphenyl-4-yl]-1,2,4-oxadiazol-3-yl}phenyl)ethyl]-L-alanine, hydrochloride salt and N-[(1R)-1-(4-{5-[2′-methyl-2-(trifluoromethyl)biphenyl-4-yl]-1,2,4-oxadiazol-3-yl}phenyl)ethyl]-D-alanine, hydrochloride salt]
2.21e-09 | 7.84 | 1.33e-06 |  |  | Cc1ccccc1-c1ccc(-c2nc(-c3ccc([C@H](C)N[C@H](C)C(=O)O)cc3)no2)cc1C(F)(F)F (racemic) [Example 27, N-[(1S)-1-(4-{5-[2′-methyl-2-(trifluoromethyl)biphenyl-4-yl]-1,2,4-oxadiazol-3-yl}phenyl)ethyl]-D-alanine, hydrochloride salt and N-[(1R)-1-(4-{5-[2′-methyl-2-(trifluoromethyl)biphenyl-4-yl]-1,2,4-oxadiazol-3-yl}phenyl)ethyl]-L-alanine, hydrochloride salt]
2.81e-09 | 43.3 | 1.77e-06 |  |  | CCC(C(=O)O)N(C)Cc1ccc(-c2noc(-c3ccc(-c4ccccc4C)c(C(F)(F)F)c3)n2)cc1F (centres unmarked) [Example 1, 2-[(2-fluoro-4-{5-[2′-methyl-2-(trifluoromethyl)biphenyl-4-yl]-1,2,4-oxadiazol-3-yl}benzyl)(methyl)amino]butanoic acid, hydrochloride salt]
1.42e-09 | 10.3 | > 2e-05 | 2.8e-10 |  | Cc1cc(-c2nc(-c3ccc([C@@H](C)N[C@H](C)C(=O)O)cc3)no2)ccc1-c1ccccc1C(F)F [Example 2, N-[(1R)-1-(4-{5-[2′-(difluoromethyl)-2-methylbiphenyl-4-yl]-1,2,4-oxadiazol-3-yl}phenyl)ethyl]-D-alanine, hydrochloride salt]
2e-09 | 8.19 | 2.59e-06 | 3.4e-10 |  | COCc1cc(-c2nc(-c3ccc([C@H](C)N[C@H](C)C(=O)O)cc3)no2)ccc1-c1ccccc1C [Example 3, N-[(1S)-1-(4-{5-[2-(methoxymethyl)-2′-methylbiphenyl-4-yl]-1,2,4-oxadiazol-3-yl}phenyl)ethyl]-D-alanine, hydrochloride salt]
9.18e-10 | 2 | 8.63e-07 | 1.45e-10 | 2.2e-06 | COCc1cc(-c2nc(-c3ccc([C@@H](C)N[C@H](C)C(=O)O)cc3)no2)ccc1-c1ccccc1C [Example 4, N-[(1R)-1-(4-{5-[2-(methoxymethyl)-2′-methylbiphenyl-4-yl]-1,2,4-oxadiazol-3-yl}phenyl)ethyl]-D-alanine, hydrochloride salt]
1.27e-09 | 4.33 | 1.23e-06 |  |  | COCc1cc(-c2nc(-c3ccc([C@H](C)NCC(=O)O)cc3)no2)ccc1-c1ccccc1C [Example 5, N-[(1S)-1-(4-{5-[2-(methoxymethyl)-2′-methylbiphenyl-4-yl]-1,2,4-oxadiazol-3-yl}phenyl)ethyl]glycine, hydrochloride salt]
2.18e-09 | 7.57 | > 2e-05 | 9.92e-10 | > 2e-05 | Cc1cc(-c2nc(-c3ccc([C@@H](C)N[C@H](C)C(=O)O)cc3)no2)ccc1-c1ccccc1C(F)(F)F [Example 6, N-[(1R)-1-(4-{5-[2-methyl-2′-(trifluoromethyl)biphenyl-4-yl]-1,2,4-oxadiazol-3-yl}phenyl)ethyl]-D-alanine, hydrochloride salt]
1.64e-09 | 17.9 | 5.24e-06 | 3.7e-10 | > 2e-05 | Cc1cc(-c2nc(-c3ccc([C@@H](C)NCC(=O)O)cc3)no2)ccc1-c1ccccc1C(F)F [Example 7, N-[(1R)-1-(4-{5-[2′-(difluoromethyl)-2-methylbiphenyl-4-yl]-1,2,4-oxadiazol-3-yl}phenyl)ethyl]glycine, hydrochloride salt]

— patent publication US9029405B2, “5-(biphenyl-4-yl)-3-phenyl-1,2,4-oxadiazolyl derivatives as ligands on the sphingosine 1-phosphate(SIP)receptors” (Merck Serono S.A., priority 2010, dated 2015)
